# Results published in patent EP4389746A2, “P2X3 RECEPTOR ANTAGONISTS” (Recordati Industria Chimica E Farmaceutica SPA, priority 2022, dated 2024).
# Tests used:
# human P2X2/3 receptor = molecular target: T1, human P2X2/3 receptor (Homo sapiens, UniProt P56373+Q9UBL9); assay: Calcium fluorescence measurement: human P2X2/3 receptor activity inhibition (CHO-K1 cells, Fluo-8 NoWash, […]); assay type: cell-based; details: for IC50: CHO-K1 cells expressing human P2RX2/X3 channel, 10µM α,β-Met-ATP, read-out: h-P2X2/3 IC50; for Selectivity: ratio of IC50 of P2X2/3/ P2X3 receptors
# T1 construct: expressed in transfected cells; host or cells: CHO-K1
# T1 sequence (P56373 1-397): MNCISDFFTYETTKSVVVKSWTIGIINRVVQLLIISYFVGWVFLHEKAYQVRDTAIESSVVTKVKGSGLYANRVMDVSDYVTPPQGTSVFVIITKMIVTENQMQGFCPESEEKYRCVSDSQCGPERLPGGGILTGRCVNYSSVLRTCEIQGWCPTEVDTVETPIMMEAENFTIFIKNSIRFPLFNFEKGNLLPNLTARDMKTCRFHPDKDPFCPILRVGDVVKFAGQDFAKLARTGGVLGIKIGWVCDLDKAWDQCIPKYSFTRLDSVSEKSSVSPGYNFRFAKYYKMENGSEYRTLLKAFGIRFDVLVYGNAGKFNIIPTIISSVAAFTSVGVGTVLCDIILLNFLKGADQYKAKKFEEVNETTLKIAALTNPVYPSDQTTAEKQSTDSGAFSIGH
# T1 sequence (Q9UBL9 1-471): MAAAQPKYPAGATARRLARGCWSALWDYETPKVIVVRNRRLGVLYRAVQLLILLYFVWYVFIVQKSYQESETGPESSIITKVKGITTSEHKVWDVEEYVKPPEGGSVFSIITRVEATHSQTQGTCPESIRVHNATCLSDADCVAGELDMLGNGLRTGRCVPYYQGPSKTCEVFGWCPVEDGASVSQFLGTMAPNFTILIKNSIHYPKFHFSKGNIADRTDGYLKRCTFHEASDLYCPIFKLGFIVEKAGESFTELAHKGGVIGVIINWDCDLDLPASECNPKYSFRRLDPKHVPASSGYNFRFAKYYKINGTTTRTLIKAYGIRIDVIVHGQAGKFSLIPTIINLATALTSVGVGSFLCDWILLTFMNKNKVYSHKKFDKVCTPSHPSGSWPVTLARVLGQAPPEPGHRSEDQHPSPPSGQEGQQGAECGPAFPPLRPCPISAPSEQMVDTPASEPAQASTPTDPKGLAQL
# Experimental: Determination of human P2X2/3 receptor activity inhibition
# The assay for the human P2RX2/X3 has been evaluated by the screening instrumentation using the […] as reader and the FLUO8-NoWash dye as fluorescent readout for calcium detection.
# CHO-K1 cells recombinantly expressing the human P2RX2/X3 channel are maintained in DMEM F-12 (1:1) mixture (LONZA cat. n°: BE04-687F/U1) supplemented with 5 mL of 100 mM Sodium Pyruvate (LONZA cat. n° BE13-115E), 25 mL of 7.5% Sodium Bicarbonate (LONZA cat. n° BE17-613E), 6.5 mL of 1M Hepes (LONZA cat. n° BE17-737E), 5 mL of 100X Penicillin/Streptomycin mixture (LONZA cat. n° DE17-602E) and 50 mL of Fetal Bovine Serum (Sigma cat. n° F7524), 5 µg/mL Puromycin dihydrochloride (Sigma cat. n° P9620) and 1 mg/ml G418 disulfate salt (Sigma cat. n° G8168).
# Cells were seeded into black-walled clear bottom 384 Multiwell plates at a density of 10.000 cells/well in complete medium. After 24 h the culture medium was replaced with 20 µL/well of Fluo-8 NoWash calcium sensitive dye (AAT Bioquest cat. n° 36316) diluted in Tyrode's buffer (Standard Tyrode's buffer: in house solution, 130 mM NaCl, 5 mM KCl, 2 mM CaCl2, 5 mM NaHCO3, 1 mM MgCl2, 20 mM HEPES, pH 7.4).
# The plates were incubated for 1 hours at 37°C and injected with 10 µL/well of test compounds at 3X concentration in Tyrode's buffer with the […]. After 5 minutes a second injection of 15 µL/well of 10µM α,β-Met-ATP in Tyrode's buffer (α,β-Met-ATP: from Tocris cat. n° 3209) was performed and the signal of the emitted fluorescence was recorded by […] (Molecular Devices).
# The selectivity is expressed as the ratio of IC50 of P2X2/3/ P2X3 receptors. Table 8: Human P2X3 and h-P2X2/3 receptor antagonist activity for selected compounds of the invention.
# human P2X3 receptor = molecular target: T2, human P2X3 receptor (Homo sapiens, UniProt P56373); assay: Calcium luminescence measurement: human P2X3 receptor activity inhibition (CHO-K1 cells, photoprotein readout, FLEXSTATION); assay type: cell-based; details: CHO-K1 cells co-expressing human P2X3 and Ca2+ sensitive photoprotein; agonist α,β-Met-ATP; read-out: h-P2X3 IC50
# T2 construct: expressed in transfected cells; host or cells: CHO-K1
# T2 sequence (P56373 1-397): T1 sequence (P56373 1-397)
# Experimental: Determination of human P2X3 receptor activity inhibition
# The assay for the human purinergic P2RX3 receptor has been adapted to the internal screening instrumentation using the FLEXSTATION as reader and a photoprotein as luminescent readout. The assay consists of CHO-K1 cells recombinantly co-expressing the human P2rx3 receptor and a Ca^2+ sensitive photoprotein. Cells are maintained in DMEM F-12 (1:1) mixture (LONZA cat. n° BE04-687F/U1) supplemented with 9 mL of 100 mM Sodium Pyruvate (LONZA cat. n° BE13-115E), 29 mL of 7.5% Sodium Bicarbonate (LONZA cat. n° BE17-613E), 5.5 mL of 1 M Hepes (LONZA cat. n° BE17-737E), 5 mL of 100X Penicillin/Streptomycin mixture (LONZA cat. n° DE17-602E) and 50 mL of Fetal Bovine Serum (Sigma cat. n° F7524), 1 mg/mL G418 disulfate salt (Sigma cat. n° G8168) and 5 µg/ml Puromycin dihydrochloride (Sigma cat. n° P9620). Standard propagation conditions consist of seeding in a P75 flask twice a week, recovering about 20×10^6 cells, corresponding to about 80% confluency. Cells were seeded into black-walled clear bottom 96 well plates at a density of 40000 cells/well in a complete medium. After 24 h the culture medium was replaced with 200 µL/well of coelenterazine in Tyrode's buffer (Standard Tyrode's buffer: in house solution, 130 mM NaCl, 5 mM KCl, 2 mM CaCl2, 5 mM NaHCO3, 1 mM MgCl2, 20 mM HEPES, pH 7.4). Coelenterazine was purchased from BIOSYNTH (cat. n° C-7001). 10 mM stock solution was prepared in DMSO and glutathione and stored at -20° C. The plates were incubated for 4 hours at 37°C, and injected with 10 µL/well of test compounds at 25X concentration in Tyrode's buffer. After 4 minutes a second injection of 50 µL/well of 5X α,β-Met-ATP in Tyrode's buffer (α,β-Met-ATP: from Tocris (cat. n° 3209), was dissolved at 100 mM in water and stored in aliquots at -20°C) was performed and the signal of the emitted luminescence was recorded by FLEXSTATION III (Molecular Devices). […]
# The inhibition curves of the tested compounds at cloned P2X3 receptor were determined by nonlinear regression analysis using software Prism 5.0 (Graphpad, San Diego, CA). The IC50 values and pseudo-Hill slope coefficients were estimated by the program.
SMILES,IC50 (human P2X2/3 receptor) [nM],Selectivity (human P2X2/3 receptor),IC50 (human P2X3 receptor) [nM]
"CC(C)C1CN2C(=O)N(Cc3ccc(Cl)cc3)c3cc(N4CCOCC4)cnc3C2=N1 (racemic) [Example 9, 6-[(4-Chlorophenyl)methyl]-8-(morpholin-4-yl)-2-(propan-2-yl)-2,6-dihydroimidazo[1,2-c]pyrido[2,3-e]pyrimidin-5(3H)-one]",7410,44,167
"COC(C)(C)C1CN2C(=O)N(Cc3ccc(Cl)cc3)c3cc(N4CCOCC4)cnc3C2=N1 (centres unmarked) [Example 5, 6-(4-Chlorobenzyl)-2-(2-methoxypropan-2-yl)-8-(morpholin-4-yl)-2,6-dihydroimidazo[1,2-c]pyrido[2,3-e]pyrimidin-5(3H)-one]",19000,170,111
"COc1ccc(CN2C(=O)N3C(=NC(=O)C3C(C)(C)C)c3ncc(N4CCOCC4)cc32)cc1 (centres unmarked) [Example 20, 3-tert-Butyl-6-[(4-methoxyphenyl)methyl] -8-(morpholin-4-yl)imidazo[1,2-c]pyrido[2,3-e]pyrimidine-2,5(3H,6H)-dione]",28500,249,114
CC(C)(C)C1C(=O)N=C2c3ncc(N4CCOCC4)cc3N(Cc3ccc(Cl)cc3)C(=O)N21 (centres unmarked) [Example 21],3430,51,67
"CC(C)C1C(=O)N=C2c3ncc(N4CCC(O)CC4)cc3N(Cc3ccc(Cl)cc3)C(=O)N21 (centres unmarked) [Example 26, 6-[(4-Chlorophenyl)methyl]-8-(4-hydroxypiperidin-1-yl)-3-(propan-2-yl)imidazo[1,2-c]pyrido[2,3-e]pyrimidine-2,5(3H,6H)-dione]",> 30000,>260,115
"CC(C)(C)c1nnc2c3ncc(N4CCOCC4)cc3n(Cc3ccc(Cl)cc3)c(=O)n12 [Example 30, 3-tert-Butyl-6-[(4-chlorophenyl)methyl]-8-(morpholin-4-yl)pyrido[2,3-e][1,2,4]triazolo[4,3-c]pyrimidin-5(6H)-one]",> 30000,>466,64.3
"CC(C)(C)c1nc2c3ncc(N4CCCC(O)C4)cc3n(Cc3ccc(Cl)cc3)c(=O)n2n1 (centres unmarked) [Example 52, 2-tert-Butyl-6-[(4-chlorophenyl)methyl]-8-(3-hydroxypiperidin-1-yl)pyrido[2,3-e][1,2,4]triazolo[1,5-c]pyrimidin-5(6H)-one]",,,215

# Stronger by IC50 (human P2X3 receptor), values ahead:
IC50 (human P2X2/3 receptor) [nM],Selectivity (human P2X2/3 receptor),IC50 (human P2X3 receptor) [nM],SMILES
221,6.5,33.5,"CC(C)C1CN2C(=O)N(CC(=O)Nc3ccc(F)cn3)c3cc(N4CCOCC4)cnc3C2=N1 (centres unmarked) [Example 6, N-(5-Fluoropyridin-2-yl)-2-[8-(morpholin-4-yl)-5-oxo-2-(propan-2-yl)-2,3-dihydroimidazo[1,2-c]pyrido[2,3-e]pyrimidin-6(5H)-yl]acetamide]"
> 30000,>722,41.5,"CC(C)(CO)C1CN2C(=O)N(Cc3ccc(Cl)cc3)c3cc(N4CCOCC4)nnc3C2=N1 (centres unmarked) [Example 17, 5-[(4-Chlorophenyl)methyl]-9-(1-hydroxy-2-methylpropan-2-yl)-3-(morpholin-4-yl)-8,9-dihydroimidazo[1',2':1,6]pyrimido[5,4-c]pyridazin-6(5H)-one]"
> 30000,>646,46.4,"COC(C)(C)C1CN2C(=O)N(Cc3ccc(Cl)cc3)c3cc(N4CCOCC4)nnc3C2=N1 (centres unmarked) [Example 18, 5-[(4-Chlorophenyl)methyl]-9-(2-methoxypropan-2-yl)-3-(morpholin-4-yl)-8,9-dihydroimidazo[1',2':1,6]pyrimido[5,4-c]pyridazin-6(5H)-one]"
> 30000,>961,31.2,"CC(C)(O)C1CN2C(=O)N(Cc3ccc(Cl)cc3)c3cc(N4CCOCC4)nnc3C2=N1 (centres unmarked) [Example 19, 5-[(4-Chlorophenyl)methyl]-9-(2-hydroxypropan-2-yl)-3-(morpholin-4-yl)-8,9-dihydroimidazo[1',2':1,6]pyrimido[5,4-c]pyridazin-6(5H)-one]"
19700,566,34.8,"COc1ccc(Cn2c(=O)n3c(C(C)(C)C)nnc3c3ncc(N4CCOCC4)cc32)cc1 [Example 29, 3-tert-Butyl-6-(4-methoxybenzyl)-8-(morpholin-4-yl)pyrido[2,3-e][1,2,4]triazolo[4,3-c]pyrimidin-5(6H)-one]"
8150,>1000,7.2,"CC(C)(C)c1nnc2c3ncc(N4CCOCC4)cc3n(Cc3ccc(Br)cc3)c(=O)n12 [Example 31, 6-[(4-Bromophenyl)methyl] -3-tert-butyl-8-(morpholin-4-yl)pyrido[2,3-e][1,2,4]triazolo[4,3-c]pyrimidin-5(6H)-one]"
> 30000,>1000,21,"COC(C)(C)c1nnc2c3ncc(N4CCOCC4)cc3n(Cc3ccc(Cl)cc3)c(=O)n12 [Example 32, 6-(4-Chlorobenzyl)-3-(2-methoxypropan-2-yl)-8-(morpholin-4-yl)pyrido[2,3-e][1,2,4]triazolo[4,3-c]pyrimidin-5(6H)-one]"
,,24.9,"CC(C)(C)Cc1nc2c3nnc(N4CCOCC4)cc3n(Cc3ccc(Cl)cc3)c(=O)n2n1 [Example 54, 5-[(4-Chlorophenyl)methyl]-9-(2,2-dimethylpropyl)-3-(morpholin-4-yl)[1,2,4]triazolo[1',5':1,6]pyrimido[5,4-c]pyridazin-6(5H)-one]"
